Tests used:
[1] = tested on: MT-4 cell; conditions: MT-4, 5 ug/ml
Protocol: (§1) The cells.--A continuous lymphoblast line of MT-4 cells was used in the study. The cells were propagated in a concentration of 0.2×10^6 cells/ml in RPMI-1640 medium with 15% fetal calf serum, 300 μg/ml L-glutamine and 100 μg/ml gentamycine. The cells were cultivated in suspension in 24-well plates of NUNCLON Company.
(§2) The viability of the cells was determined by staining with 0.4% trypan blue.
(§3) Cytotoxicity of the preparations was determined in 24-well plastic plates. Each well of the panel was filled with 1 ml of cell suspension in a concentration 0.2×10^6 cells/ml after which to different wells various doses of chemopreparations were added: 1600, 1000, and 400 μg/ml. After treatment of the cells with the chemopreparations the panels with the cells were placed into a thermostat and incubated at 37° C. in an atmosphere of 5% CO2 and 98% humidity for 3-5 days. At the end of this term the results were read by the number of live and dead cells in the individual wells of the plate.

[2] = in vitro; conditions: human, mt-4 cells
Protocol: as §1, §2, §3

For `Cc1cn([C@H]2C[C@H](N=[N+]=[N-])[C@@H](CO)O2)c(=O)[nH]c1=O` [Azidothymidine, azidothymidine], the “Cell concentration per ml × 10^6” value ([1]; cell control 0.56) was 0.16 per ml × 10^6, the Proliferation index ([1]; cell control 2.80) was 1.0 and the viability [2] was 17.5%.

Source: US5932717A, “Methods of obtaining DNA-RNA hybrids from sturgeon milt” (priority 1994, dated 1999)
